The data set is described as follows: Quantitative metabolite radioprofiling in pooled plasma, urine and stool (UHPLC-FC / HRMS). Particulars: pooled 0–168 h stool. The class given is in vivo, human.

Method: The plasma sample (15 mL) after pooled was added 15 mL methanol and 15 mL acetonitrile and centrifugation (3,500 rpm, 10 min, 4°C). Extract the centrifuged solid with 7.5 mL water and 22.5 mL methanol acetonitrile (50:50, v: v). The first two extracted supernatants were combined and concentrated. The concentration of the substance is at 200 μL Acetonitrile water (20:80, v: v) was dissolved again and centrifuged again (3,600 rpm, 10 min, 4°C). Part of the supernatant was injected into the UHPLC-FC (Fraction collector) system (Thermo). The eluent from the UHPLC was collected into the Deepwell LumaPlate 96 (PerkinElmer) at the rate of 10 s per well within minutes. The total collection time is 35 min. The plates were dried by Integrated SpeedVac (Thermo), and the radiation value of each well were detected by a microplate reader (Sense Beta Hidex, Finland). Data were reconstructed to radio-chromatogram by Laura software (Lablogic, United Kingdom) to give the radio profiling of plasma.
The combined samples were centrifuged, concentrated by N2 and dissolved in a 200 μL mixture of 40 mL acetonitrile and 160 mL-water, and 120 μL was injected into the UHPLC-FC system (Thermo). Other operation steps are the same as those of plasma.
Add 6 mL methanol acetonitrile (50:50, v: v) to the combined fecal homogenate (2 g) sample. The mixture was then whirled (1 min) and centrifuged6 (3,500 rpm, 10 min, 4°C). […]

`CC(=O)c1c(C)c2cnc(Nc3ccc(C(CCN)CCO)cn3)nc2n(C2CCCC2)c1=O` (stereo not shown) [M464-2]: the “abundance in stool (in words)” value is “minor metabolites”.

(Values after article PMC10102643, “A mass balance study of [^14C]SHR6390 (dalpiciclib), a selective and potent CDK4/6 inhibitor in humans” (Frontiers in Pharmacology, 2023).)
